Results taken from patent publication US5795899A, “Soluble salts of 4-amino-2-(4,4-dimethylimidazolidin-2-on-1-yl) pyrimidine-5-carboxylic acid N-methyl-N-(3-trifluoromethylphenyl)-amide, a process for the preparation thereof, the use thereof as pharmaceuticals and starting materials” (Hoechst Aktiengesellschaft, priority 1992, dated 1998).
Converted amounts (≈) assume the structure as drawn. Read-outs that look alike come from different tables or passages of the source. One block for each molecule: values may come before it.

Key:
[1] = tested on: bronchial carcinoma cells, A 549; assay: MTT assay, inhibition of cell proliferation, A 549; assay type: cell-based; conditions: Homo sapiens, A549; 72 hours incubation
Procedure: (§1) The reduced inhibitory effect on cell proliferation was tested on exponentially growing animal (mouse leukemia cells, L 1210) and human (bronchial carcinoma cells, A 549; colon carcinoma cells, HT 29) tumor cells. This entailed the tumor cells being incubated in RPMI standard medium with various concentrations of the test substances for 72 hours. Cell incubations only in fresh medium served as control. Incubations were set up in quadruplet. […] After incubation for a further 7 to 24 hours, the cell supernatant was carefully removed and the formazan dye in the cells was solubilized by adding DMSO and measured quantitatively by photometry at 492 nm. The ratio of the extinction of the substance incubations to the control incubation was quantified. The coefficient of variation in each incubation series was less than 15%. The following Table 6 indicates the IC50 values (IC50 [μg/ml] is the concentration of the test substance per ml which is necessary for 50% inhibition) from these investigations.

[2] = tested on: mouse leukemia cells, L 1210; assay: MTT assay, inhibition of cell proliferation, L1210; assay type: cell-based; conditions: 72 hours incubation
Procedure: as §1

[3] = tested on: colon carcinoma cells, HT 29; assay: MTT assay, inhibition of cell proliferation, HT 29; assay type: cell-based; conditions: Homo sapiens, 72 hours incubation
Procedure: as §1

physchem = conditions: water
[4] = tested on: carbohydrate-induced hypertriglyceridemia; assay: Inhibition of carbohydrate-induced hypertriglyceridemia; assay type: in vivo, male Sprague-Dawley rats
Procedure: Groups of in each case 10 male Sprague-Dawley rats (supplied by the breeder Mollegard with a weight of 250-280 g) received on each of 4 consecutive days one administration of the compound dissolved in PEG 400 by gavage. In addition, after the 3rd administration and 8 and 24 hours later they received 2.5 g of fructose/kg, likewise by gavage. Moreover, after the 3rd administration of product, 50% strength fructose solution was offered to them as drinking water ad libitum, and the food was withdrawn. Retroorbital removal of blood, from which the serum was obtained for the triglyceride determination and VLDL preparation in the ultracentrifuge (flotation at d=1.006), took place 3 hours after the last product/fructose administration. The food received by the animals from 1 week before the 1st administration and up to the 3rd administration was a diet with 40% casein in the feed meal.
The animals develop, as a result of this treatment, a hypertriglyceridemia which approximately corresponds to Fredrickson phenotype IV in humans. The serum triglycerides of the normal animals increased from 0.54 to 1.1 mmol/l, and the VLDL triglycerides from 0.67 to 1.81.

hypercholesterolemia = assay: Effect on experimental hypercholesterolemia in male rats; assay type: in vivo, male Wistar rats, HOE: WISKf (SPF 71) strain; conditions: 100 mg/kg/day, oral, 7 days
Procedure: Groups of in each case 10 male rats of the HOE: WISKf (SPF 71) strain with a weight of about 200 g received each day in the morning a cocktail which contained the substances required to generate a combined dietetic/hormonal hypercholesterolemia, and in each case the product to be tested for the inhibition of hypercholesterolemia, in appropriate dosage. The cocktail was composed of a mixture of 100 g of cholesterol, 30 g of propylthiouracil and 100 g of cholic acid in 1 l of peanut oil. 1 ml of this/100 g of body weight was administered by gavage. The products to be tested were suspended in this cocktail in a concentration such that it contained the daily dose indicated in Table 4 on administration of the amount mentioned above. The other procedure for the treatment and the analysis of the individual parameters were carried out as indicated under 4.1.
Clofibrate was used as comparison product. The results are compiled in Table 4, wherein a) indicates the absolute values and b) indicates the percentage changes.

serum lipoproteins = assay: Effect on serum lipoproteins of normolipemic male rats in a subchronic test; assay type: in vivo, male Wistar rats, HOE: WISKf (SPF 71) strain; conditions: 100 mg/kg/day, oral, 7 days
Procedure: 4.1 Effect on serum lipoproteins of normolipemic male rats in a subchronic test
Groups of in each case 10 male rats of the HOE: WISKf (SPF 71) strain with an initial weight above 180 g received once a day (in the morning) the test product or the comparison product in 1% aqueous ®Tylose MH 300 solution by stomach tube (0.5 ml/100 g of body weight); the control group in each case received only the vehicle. The last (7th) administration took place 24 hours before removal of blood and sacrifice. There was free access to food and water during the test. The food was withdrawn 24 hours before the removal of blood.
The serum from all 10 rats in a group was pooled for the analysis of the serum lipoproteins. The serum lipoproteins were separated with a preparative ultracentrifuge (KONTRON TGA 65, Rotor BECKMAN 50.4 Ti).
The following conditions specified by Koga, S., Horwitz, D. L., and Scanu, A. M., Journal of Lipid Research 10, 577 (1969) and Havel, R. J., Eder, H. A., and Bragdon, H. H., J. Clin. Invest. 34, 1345 (1955) were used to separate VLDL, LDL and HDL:
Test kits from BOEHRINGER/Mannheim were used for the enzymatic determination of cholesterol and triglycerides in the separated lipoprotein fractions (compare Siedel, J., Schlumberger, H., Klose, S., Ziegenhorn, J. and Wahlefeld, A. W., J. Clin. Chem. Clin. Biochem. 19, 838 (1981) and Wahlefeld, A. W., in: H. O. Bergmeier: Methoden der enzymatischen Analyse (Methods of Enzymatic Analysis), 2nd edition, Volume II, Verlag Chemie 1974, page 1878). The proteins were determined by the method of Lowry (Lowry, O. H., Roseborough, N. J., Farr, A. L. and R. J. Randell, J. Biol. Chem. 193, 265 (1951)).
Clofibrate was used as comparison product.

[5] = Table 1, Temp. [°C]: No. 1 25.0, 2 23.0, 3 26.2, 4 25.1, 5 25.2, 6 24.1, 7 24.5, 8 24.2, 9 24.2, 10 25.7, 11 25.8
[6] = Table 2, Temp. [°C]: hydrochloride 25.0, nitrate 23.5, p-toluenesulfonate 23.2, hydrogen (R,R)-tartrate 24.6, free base 24.8

Structure (SMILES): CCCC1(C)CN(c2ncc(C(=O)Nc3ccc(Cl)c(C(F)(F)F)c3)c(N)n2)C(=O)N1 (stereo not drawn) [No. 9, reference compound]
1 part by mass dissolves in . . . parts of H2 O [5]: 725 parts of H2 O | Solubility in water: Concentration in % by weight [5]: 0.13 % by weight

Structure (SMILES): CN(C(=O)c1cnc(N2CC(C)(C)NC2=O)nc1N)c1cccc(C(F)(F)F)c1.O=[N+]([O-])O [Nitrate, 4-amino-2-(4,4-dimethyl-2-oxo-1-imidazolidinyl)pyrimidine-5-carboxylic acid N-methyl-N-(3-trifluoromethylphenyl)amide nitrate]
solubility (physchem): 110 mg/mL | 1 part by mass dissolves in . . . parts of H2 O [6]: 8.13 parts of H2 O

Structure (SMILES): CCCC1(C)CN(c2ncc(C(=O)Nc3cccc(C(F)(F)F)c3)c(N)n2)C(=O)N1 (stereo not drawn) [No. 10, reference compound]
1 part by mass dissolves in . . . parts of H2 O [5]: 255 parts of H2 O | Solubility in water: Molarity [5]: 8.54 × 10^-3

Structure (SMILES): CN(C(=O)c1cnc(N2CC(C)(C)NC2=O)nc1N)c1cccc(C(F)(F)F)c1.Cc1ccc(S(=O)(=O)O)cc1 [p-Toluenesulfonate, 4-amino-2-(4,4-dimethyl-2-oxo-1-imidazolidinyl)pyrimidine-5-carboxylic aci d N-methyl-N-(3-trifluoromethylphenyl)amide p-toluenesulfonate]
solubility (physchem): 65 mg/mL | 1 part by mass dissolves in . . . parts of H2 O [6]: 14.44 parts of H2 O

Structure (SMILES): CC1NC(=O)N(c2ncc(C(=O)Nc3cccc(C(F)(F)F)c3)c(N)n2)C1C (stereo not drawn) [No. 11, reference compound]
1 part by mass dissolves in . . . parts of H2 O [5]: 277 parts of H2 O

Structure (SMILES): CN(C(=O)c1cnc(N2CC(C)(C)NC2=O)nc1N)c1cccc(C(F)(F)F)c1.O=C(O)C(O)C(O)C(=O)O [Hydrogen (R,R)-tartrate, 4-amino-2-(4,4-dimethyl-2-oxo-1-imidazolidinyl)pyrimidine-5-carboxylic acid N-methyl-N-(3-trifluoromethylphenyl)amide hydrogen (R,R)-tartrate]
solubility (physchem): > 91 mg/mL | 1 part by mass dissolves in . . . parts of H2 O [6]: < 9.90 parts of H2 O

Structure (SMILES): CCCC1(C)CN(c2ncc(C(=O)Nc3cc(C(F)(F)F)ccc3Cl)c(N)n2)C(=O)N1 (stereo not drawn) [Compound 8]
1 part by mass dissolves in . . . parts of H2 O [5]: 781 parts of H2 O

Structure (SMILES): CCOC(=O)C(C)(C)Oc1ccc(Cl)cc1 [Clofibrate, reference compound]
Triglycerides in serum, % change from fructose control ([4]; 100 mg/kg/day, oral, 4 days): -25% | Triglycerides in the VDVL fraction, % change from fructose control ([4]; 100 mg/kg/day, oral, 4 days): -37% | Triglycerides in the VDVL fraction, pool n = 10 ([4]; 100 mg/kg/day, oral, 4 days): 1.15 mmol/L | Triglycerides in serum (x) ([4]; 100 mg/kg/day, oral, 4 days, mean x): 0.83 mmol/L | Inhibitory effect on increase in VLDL triglycerides (in words) ([4]; dose 100 times higher than 1 mg/kg/day): only a slight inhibitory effect | % change compared with control, protein "HDL" d > 1.04 (hypercholesterolemia): -27% | % change compared with control, protein LDL (hypercholesterolemia): +16% | % change compared with control, protein VLDL (hypercholesterolemia): -63% | % change compared with control, total cholesterol "HDL" d > 1.04 (hypercholesterolemia): +10% | % change compared with control, total cholesterol LDL (hypercholesterolemia): +16% | % change compared with control, total cholesterol VLDL (hypercholesterolemia): +27% | % change compared with control, triglycerides VLDL (hypercholesterolemia): +21% | Lipoprotein fraction protein "HDL" (hypercholesterolemia): 3920 | Lipoprotein fraction protein LDL (hypercholesterolemia): 1435 | Lipoprotein fraction protein VLDL (hypercholesterolemia): 809 | Lipoprotein fraction total cholesterol "HDL" (hypercholesterolemia): 648 | Lipoprotein fraction total cholesterol LDL (hypercholesterolemia): 5434 | Lipoprotein fraction total cholesterol VLDL (hypercholesterolemia): 5924 | Lipoprotein fraction triglycerides VLDL (hypercholesterolemia): 1770 | Serum % change compared with control at the end of treatment, total cholesterol (hypercholesterolemia): +20% | Serum % change compared with control at the end of treatment, triglycerides (hypercholesterolemia): +26% | Triglycerides, pool (hypercholesterolemia): 3.68 mmol/L | Total cholesterol (x) (hypercholesterolemia; mean x): 880 mg/dL | % change compared with control, protein LDL (serum lipoproteins): -32% | % change compared with control, total cholesterol LDL (serum lipoproteins): -31% | % change compared with control, total cholesterol VLDL (serum lipoproteins): -30% | % change compared with control, triglycerides VLDL (serum lipoproteins): -34%

Other lines, results leading:

1 part by mass dissolves in . . . parts of H2 O [5]: 703 parts of H2 O
Structure (SMILES): CC1(C)CN(c2ncc(C(=O)Nc3ccc(F)c(C(F)(F)F)c3)c(N)n2)C(=O)N1 [Compound 3]

1 part by mass dissolves in . . . parts of H2 O [5]: 217 parts of H2 O
Structure (SMILES): CC1(C)CN(c2ncc(C(=O)Nc3cc(C(F)(F)F)ccc3Cl)c(N)n2)C(=O)N1 [Compound 4]

IC50 [1]: 3.4 µg/mL (≈ 8.62 µM) | IC50 [2]: 0.7 µg/mL (≈ 1.78 µM) | IC50 [3]: 4.3 µg/mL (≈ 10.9 µM)
Structure (SMILES): CC1(C)CN(c2ncc(C(=O)Nc3cccc(C(F)(F)F)c3)c(N)n2)C(=O)N1 [No. 1, 4-amino-2-(4,4-dimethylimidazolidin-2-on-1-yl)pyrimidine-5-carboxylic acid N-(3-trifluoromethylphenyl)amide, reference compound]

Solubility in water (in words): exceptionally slightly soluble in water
Structure (SMILES): CC1(C)CN(c2ncc(C(=O)Nc3cccc(C(F)(F)F)c3)c(N)n2)C(=O)N1 [imanixil, 4-amino-2-(4,4-dimethylimidazolidin-2-on-1-yl)pyrimidine-5-carboxylic acid N-(3-trifluoromethylphenyl)amide, reference compound]

1 part by mass dissolves in . . . parts of H2 O [5]: 1055 parts of H2 O
Structure (SMILES): CC1(C)CN(c2ncc(C(=O)Nc3ccc(Cl)c(C(F)(F)F)c3)c(N)n2)C(=O)N1 [Compound 5]

Solubility in water: Concentration in % by weight [5]: 0.08 % by weight | Solubility in water: Molarity [5]: 0.90 × 10^-3
Structure (SMILES): CC1(C)CN(c2ncc(C(=O)Nc3cccc(C(F)(F)F)c3)c(N)n2)C(=O)N1 [Compound 2]

1 part by mass dissolves in . . . parts of H2 O [5]: 554 parts of H2 O
Structure (SMILES): COc1ccc(NC(=O)c2cnc(N3CC(C)(C)NC3=O)nc2N)cc1C(F)(F)F [Compound 7]

Solubility in water (in words): sparingly soluble in water | 1 part by mass dissolves in . . . parts of H2 O [5]: 75 parts of H2 O
Structure (SMILES): COc1ccc(C(F)(F)F)cc1NC(=O)c1cnc(N2CC(C)(C)NC2=O)nc1N [Compound 6]
